Experimental data published in PMC12630348, “Evidence of an activity-enhancing conformational shift in Arabidopsis thaliana plant cysteine oxidase 4 induced by binding of substrate or substrate-mimics” (The Journal of Biological Chemistry, 2025).

Legend:
recombinant AtPCO4 [1] = target: T1, recombinant AtPCO4 (Arabidopsis thaliana, UniProt Q9SJI9); assay: AtPCO4 activity toward RAP2.12_2—17 after 6 min aerobic preincubation of enzyme with peptidomimetic or control peptide (time course, LC-MS); type: biochemical; conditions: 200 μM peptide, 6 min aerobic preincubation with 0.1 μM AtPCO4; 20 μM RAP2.12_2—17; 25 °C
T1 construct: His tag followed by thrombin site (N); made in house; host or cells: E. coli BL21(DE3)
Protocol: (§1) Recombinant AtPCO4 was expressed using BL21(DE3) Escherichia coli cells containing the plasmid pET-28a(+)-His-THROMBIN-AtPCO4, and purified using Ni^2+-affinity and size exclusion chromatography as described in ([59]). WT AtPCO4 along with AtPCO4 Cys190Ala and AtPCO4 ADO loop variants were purified using this method. WT AtPCO4 reactivity toward the peptidomimetics was assessed by incubating (0.1 μM) recombinant enzyme with (200 μM) peptidomimetic in assay buffer (assay buffer: 50 mM Bis-tris propane, 40 mM NaCl, pH 8) supplemented with 20 μM FeSO4, 1 mM ascorbate, 5 mM TCEP, at 25 °C for 20 min prior to quenching in 5% (v/v) formic acid.
(§2) Reaction samples taken at 0 s, 30 s, 60 s, 90 s, 2 min, 5 min, 10 min, 15 min, and 20 min intervals were quenched in 5% (v/v) formic acid.
(§3) Spectra were assessed manually in MassHunter Qualitative Analysis B.07.00 software (Agilent) to ensure the correct ion was chosen for peptide oxidation quantification. RapidFire Integrator.exe was used to integrate areas of product and substrate ions (ii) an Acquity Ultra-high performance liquid chromatography system (Waters) coupled to a Xevo G2-XS Q-ToF mass spectrometer (Waters) operated in positive electrospray mode. Instrument parameters, data acquisition and data processing were controlled by MassLynx V4.1 software (Waters). Source parameters were adjusted to maximize sensitivity and minimize fragmentation. […] TOF mass scan range 50.00—2500.00 Da. Spectra were assessed manually in MassLynx V4.1 software (Waters) to ensure the correct ion was chosen for peptide oxidation quantification. MassLynx V4.1 software (Waters) was used to integrate areas of product and substrate ions.
(§4) Integration values obtained by MS were subsequently used to quantify reaction turnover (μmol of substrate oxidized per mg of enzyme), and graphs were generated using Prism 10 (GraphPad).

recombinant AtPCO4 [2] = target: T1, recombinant AtPCO4; assay: Substrate only assay: anaerobic preincubation of AtPCO4 with RAP2.12_2—17; type: biochemical
Protocol: The assay plate was immediately removed to aerobic conditions, initiating the reaction. Samples were taken at 0 s, 2 min, 5 min, 10 min, 15 min, and 20 min and quenched in 5% (v/v) formic acid.
as §3, §4

recombinant AtPCO4 [3] = target: T1, recombinant AtPCO4; assay: AtPCO4 activity toward RAP2.12_2—17 with peptidomimetic, without peptidomimetic-AtPCO4 preincubation; type: biochemical; conditions: 200 μM peptidomimetic, 0.1 μM AtPCO4, 20 μM RAP2.12_2—17, 25 °C
Protocol: To test the significance of the peptidomimetic-AtPCO4 preincubation step, the method above was modified so that either 0 or 400 μM peptidomimetic was instead in mixture (ii) (Fig. 9B). Mixtures were again incubated separately at 25 °C for 6 min before being combined in equal volumes, initiating the reaction. Samples were taken and quenched in 5% (v/v) formic acid.
as §3, §4

AtPCO4 Cys190Ala variant = assay: Cys190Ala AtPCO4 variant activity toward RAP2.12_2—17 after preincubation with peptidomimetic; type: biochemical, Arabidopsis thaliana
Protocol: as §1, §2
Figure S15 Investigating the potential formation of a Cys190-Tyr192 activity-enhancing crosslink. […] Standard conditions: 5 mM TCEP, 20 μM FeSO4, 1 mM ascorbate, 25 °C. […] Error bars display S.D (n=3).

recombinant AtPCO4 [4] = target: T1, recombinant AtPCO4; assay: AtPCO4 activity toward RAP2.12_2—15 or RAP2.12_2—17 in the presence and absence of peptidomimetic 10 (Fig. S16); type: biochemical; conditions: 14-mer RAP2.12 substrate, slope of turnover against time (minutes)
Protocol: as §2
Standard conditions: 5 mM TCEP, 20 μM FeSO4, 1 mM ascorbate, 25 °C. Turnover calculated as μmol RAP2.122—15/17 oxidised per […] of AtPCO4 (data shown is not normalised). Error bars display S.D (n=3).

Substance	x (slope between 0-5 min), Peptidomimetic rxn / CP rxn (recombinant AtPCO4 [1])	x (slope between 0-5 min), Peptidomimetic rxn, no preincubation (recombinant AtPCO4 [3])	other results
XGGAIISDFIPPPR [Peptidomimetic 6, 14-mer X… with N-terminal X = TM3C (thiomorpholine, cyclized thioether)]	0.18	–	–
RAP2.12_2—17: 16-mer N-terminal L-Cys substrate peptide of AtPCO4 representing AtRAP2.12, purchased from GL Biochem (CGGAIISDFIPPPRSR; UniProt Q9SSA8 2-17, looked up, fragment)	–	–	x (slope between 5-15 min), Preincubation rxn (recombinant AtPCO4 [2]; 20 μM RAP2.12_2—17, 6 min anaerobic preincubation with 0.1 μM WT AtPCO4): 0.099; x (slope between 5-15 min), Preincubation rxn (recombinant AtPCO4 [2]; 50 μM RAP2.12_2—17, 6 min anaerobic preincubation with 0.1 μM WT AtPCO4): 0.275; x (slope between 5-15 min), No Preincubation (recombinant AtPCO4 [2]; 50 μM RAP2.12_2—17, no preincubation with AtPCO4 (anaerobic preparation)): 0.175; x (slope between 5-15 min), Preincubation rxn (recombinant AtPCO4 [2]; 100 μM RAP2.12_2—17, 6 min anaerobic preincubation with 0.1 μM WT AtPCO4): 0.34; x (slope between 5-15 min), No Preincubation (recombinant AtPCO4 [2]; 100 μM RAP2.12_2—17, no preincubation with AtPCO4 (anaerobic preparation)): 0.209; x (slope between 5-15 min), Preincubation rxn (recombinant AtPCO4 [2]; 200 μM RAP2.12_2—17, 6 min anaerobic preincubation with 0.1 μM WT AtPCO4): 0.303; x (slope between 5-15 min), No Preincubation (recombinant AtPCO4 [2]; 200 μM RAP2.12_2—17, no preincubation with AtPCO4 (anaerobic preparation)): 0.15
XGGAIISDFIPPPR [Peptidomimetic 2, 14-mer X… with N-terminal X = homocysteine]	–	0.05853	–
XGGAIISDFIPPPR [Peptidomimetic 13, 14-mer X… with N-terminal X = Pra]	0.34	–	–
XGGAIISDFIPPPR [Peptidomimetic 11, 14-mer X… with N-terminal X = hSer]	0.29	–	–
XGGAIISDFIPPPR [Peptidomimetic 12, 14-mer X… with N-terminal X = AlG]	–	0.03158	–
XGGAIISDFIPPPR [Peptidomimetic 1, 14-mer X… mimic of RAP2.12 with N-terminal X = D-Cys]	0.28	–	–
XGGAIISDFIPPPR [Peptidomimetic 7, 14-mer X… with N-terminal X = 3MePro, Cys-analogue devoid of an amino group]	0.78	0.03853	increase in the initial rate of RAP2.12_2—17 oxidation between 0—5 min, Cys190Ala AtPCO4 variant (AtPCO4 Cys190Ala variant; 200 μM peptidomimetic, 6 min preincubation with 0.1 μM C190A AtPCO4, 20 μM RAP2.12_2—17, relative to control without peptidomimetic (=1), 25 °C, n = 3): 5.21 fold; Initial rate: x (slope between 0-5 min), Peptidomimetic rxn (AtPCO4 Cys190Ala variant; C190A AtPCO4, slope of turnover time course between 0-5 min): 0.4559
XGGAIISDFIPPPR [Peptidomimetic 8, 14-mer X… with N-terminal X = Nα-Me-Cys]	–	0.1162	–
XGGAIISDFIPPPR [Peptidomimetic 4, 14-mer X… with N-terminal X = S-methyl cysteine (linear thioether)]	0.31	–	–
XGGAIISDFIPPPR [Peptidomimetic 10, 14-mer X… with N-terminal X = Ser]	–	0.07282	x (slope between 0-5 min), Peptidomimetic rxn (recombinant AtPCO4 [4]): 0.6491
XGGAIISDFIPPPR [Peptidomimetic 3, 14-mer X… with N-terminal X = penicillamine]	–	0.01063	–
